Experiments:
[1] = system: DH response; test: Modulator assay methods of the '379 patent (amplifier activity, DH test); assay type: in vivo, human; conditions: other moieties in effluents of Example 6B process
[2] = system: DH skin reaction to tetanus toxoid; parameters: species or system human; conditions: in vivo
[3] = system: IL-2 production in response to mitogen PHA; test: IL-2 in vitro test (PHA-stimulated IL-2 production); assay type: cell-based, human; conditions: optimal concentration of TGG
From the text: The production of IL-2 in response to mitogen was characterized by the existence of the same optimal concentration phenomenon (paradoxical effect) described above.

In the case of Gly-Gly, the “immunological activity as assayed by DH test” value [1] is reported as “None of these other moieties appeared to possess immunological activity”.
Ser-Phe was tested, and the “immunological activity as assayed by DH test” value [1] was “None of these other moieties appeared to possess immunological activity”.
Tyrosylglycylglycine [TGG] was tested, and the “optimum concentration for maximum immune effect” value [2] was about 3 fM, the “ratio of PHA-stimulated IL-2 production with TGG added to without TGG” value ([3]; subject #1) was 1.45 and the “ratio of PHA-stimulated IL-2 production with TGG added to without TGG” value ([3]; subject #2) was 2.55.
